# System: p-MLKL
# Assay: Western blot of phosphorylated MLKL in whole cell lysates
# Type: cell-based, human
# Settings: 8 h
# Procedure: To identify potential inhibitors of the necroptosis pathway targeting MLKL or the process of p-MLKL pore formation on the membrane, we screened a library of 2150 compounds, including FDA-approved drugs and those in phase 1–3 clinical trials, using THP-1-HMGB1-Lucia™ cells expressing the HMGB1-luciferase fusion protein. The cells were treated with a necroptosis-inducing mixture containing TNF-α, BV6, and Z-VAD-FMK (TBZ) in addition to the compound library (Fig. 1A). The supernatants were harvested to measure luciferase activities for necroptosis. The luciferase activities of cell supernatants treated with TBZ alone were considered as the maximum release (100%) of HMGB1-luciferase. NEC-1, a known RIP1 inhibitor used in both humans and mice, was used as a positive control. […] Next, we performed a propidium iodide (PI) uptake assay to exclude cytotoxic compounds using THP-1 cells. Then, we selected candidate molecules that were arbitrarily less than 30% of those treated with TBZ. […] Next, the inhibition levels of p-MLKL were tested to select MLKL-targeting molecules (Figs. 1C and S1A). Compounds that reduced p-MLKL levels to less than 30% of TBZ-treated controls were considered as potential inhibitors of MLKL phosphorylation. Conversely, compounds that maintained p-MLKL levels above 70% were selected because they are presumed to prevent the formation of pores in the plasma membrane by interfering with oligomerization.
# The cells were harvested and lysed in 1× RIPA buffer (R4100-010, GenDEPOT, Katy, TX, USA) containing protease (P3100-001, GenDEPOT) and phosphatase (1862495, Thermo Fisher Scientific) inhibitors. WCLs were then centrifuged at 20,000×g for 30 min at 4 °C and subjected to non-reducing or reducing 8–12% SDS-PAGE gel electrophoresis. The membrane was blocked with 5% non-fat milk in TBS and probed with antibodies. Antibodies to hMLKL (14993S), mMLKL (97705S), phospho-hMLKL (Ser358) (91689S), phospho-mMLKL (Ser345) (37333S), phospho-hRIP1 (Ser166) (65746S), mRIP1 (3493S), phospho-mRIP1 (Ser321) (38662S), phospho-hRIP3 (Ser227) (93654), mRIP3 (95702S), p-mRIP3 (Thr231/Ser232) (91702S), and LDH (2012S) (Cell Signaling Technology, Danvers, MA, USA), and GAPDH (LF-PA0018, Abfrontier, S. Korea), hRIP1 (ab72139, Abcam, Cambridge, UK), hRIP3 (sc-135170, Santa Cruz Biotechnology, Dallas, TX, USA), HMGB1 (ab78923, Abcam), and LAMP1 (ab24170, Abcam) antibodies were used.
# Fig. S1 Assessment of p-MLKL inhibition to identify MLKL-targeting molecules. (A) Quantification graph corresponding to Fig. 1C. […] Whole-cell lysates (WCLs) were collected and subjected to Western blot analysis under reducing conditions using antibodies against p-MLKL, MLKL, and GAPDH. The p-MLKL/MLKL ratio was quantified and compared to that of TBZ-treated cells. Data represent the mean of three independent experiments. (B) Quantification graph corresponding to Fig. 1D. […] Cytosolic and membrane fractions were collected and analyzed by Western blot under reducing conditions. The levels of p-MLKL and p-RIP1 were normalized to LDH (cytosolic marker) and LAMP1 (membrane marker), respectively. Quantified ratios were compared to those of TBZ-treated cells (n = 3 independent experiments).
structure (smiles),measurement,setting,value
"CN1CCc2cccc3c2[C@@H]1Cc1ccc(O)c(O)c1-3 [S62, (6aS)-6-methyl-5,6,6a,7-tetrahydro-4H-dibenzo[de,g]quinoline-10,11-diol]",activity at 20 µM,"Homo sapiens, THP-1, TBZ and 20 μM compound, whole cell lysates, read-out: p-MLKL/MLKL ratio relative to TBZ-treated cells (% Value)",100%
same,"effect on p-MLKL, p-RIP3 and p-RIP1 in whole cell lysates","THP-1, TBZ, 20 μM",little to no effect

# From paper PMC12518639, “Apomorphine is a novel necroptosis inhibitor targeting mixed lineage kinase domain-like protein oligomerization” (Cell Death Discovery, 2025)
